Laboratory results taken from BigSolDB 2.1.

Cc1cc(O)c2c(c1)C(=O)c1cc(O)cc(O)c1C2=O
solubility (mole fraction)
Settings	273.65 K	278.35 K	289.35 K	298.15 K	307.5 K	313.25 K	318.05 K	323.05 K
in ethanol	0.000485	0.000626	0.000777	0.000936	0.00116	0.00148	0.00168	0.00216
in n-octanol	0.00221	0.00239	0.00266	0.00272	0.00299	0.00347	0.00404	0.00463
